Data: patent US20240217961A1 (MONOPTEROS THERAPEUTICS, INC., priority 2021, published 2024)

How the values were obtained:
Experiment in all cases: CYP phenotyping, recombinant CYP enzyme incubation
Format in all cases: in vitro ADME
CYP3A4 = CYP3A4 (Homo sapiens, UniProt P08684)
Method: (§1) These incubations were carried out at a concentration of 1 µM and contained 50 pmol/ml of CYP protein. Samples were taken at 0, 5, 10, 15, 20 and 30 minutes. The CLint and t1/2 were calculated from the data.

CYP2D6 = CYP2D6 (Homo sapiens, UniProt P10635)
Method: as §1

CYP2C9 = CYP2C9 (Homo sapiens, UniProt P11712)
Method: as §1

CYP2C8 = target: T1, CYP2C8 (Homo sapiens, UniProt P10632)
T1 sequence (P10632 1-490): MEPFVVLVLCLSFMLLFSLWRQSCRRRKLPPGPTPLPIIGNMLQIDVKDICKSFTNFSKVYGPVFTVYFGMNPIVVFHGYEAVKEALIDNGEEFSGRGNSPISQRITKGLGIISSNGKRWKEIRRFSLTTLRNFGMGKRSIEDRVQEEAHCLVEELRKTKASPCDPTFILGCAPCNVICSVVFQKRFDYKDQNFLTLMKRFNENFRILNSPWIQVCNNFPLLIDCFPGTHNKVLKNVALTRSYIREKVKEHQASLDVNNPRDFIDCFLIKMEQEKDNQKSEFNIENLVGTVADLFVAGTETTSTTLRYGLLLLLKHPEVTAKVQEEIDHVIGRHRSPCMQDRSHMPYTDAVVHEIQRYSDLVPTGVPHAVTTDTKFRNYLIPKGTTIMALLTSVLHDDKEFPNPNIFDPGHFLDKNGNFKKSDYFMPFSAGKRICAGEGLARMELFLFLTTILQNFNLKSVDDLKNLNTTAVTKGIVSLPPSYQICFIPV
Method: as §1

human CYP2E1 = human CYP2E1 (Homo sapiens, UniProt P05181)
Method: as §1

human CYP3A5 = human CYP3A5 (Homo sapiens, UniProt P20815)
Method: as §1

human CYP2B6 = target: T2, human CYP2B6 (Homo sapiens, UniProt P20813)
T2 sequence (P20813 1-491): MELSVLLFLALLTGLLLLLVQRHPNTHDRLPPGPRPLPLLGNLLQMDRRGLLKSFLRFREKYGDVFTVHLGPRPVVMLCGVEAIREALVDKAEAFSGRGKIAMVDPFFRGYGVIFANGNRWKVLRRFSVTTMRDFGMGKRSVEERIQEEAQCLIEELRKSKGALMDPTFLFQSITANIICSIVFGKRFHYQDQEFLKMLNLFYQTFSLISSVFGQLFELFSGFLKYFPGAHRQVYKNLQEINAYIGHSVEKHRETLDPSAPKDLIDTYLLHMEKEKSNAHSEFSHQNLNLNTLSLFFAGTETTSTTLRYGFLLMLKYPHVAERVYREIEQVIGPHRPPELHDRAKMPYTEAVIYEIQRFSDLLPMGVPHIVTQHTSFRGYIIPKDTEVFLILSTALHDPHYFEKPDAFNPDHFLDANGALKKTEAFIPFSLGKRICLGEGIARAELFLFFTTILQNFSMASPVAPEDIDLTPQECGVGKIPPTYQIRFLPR
Method: as §1

CYP1A2 = target: T3, CYP1A2 (Homo sapiens, UniProt P05177)
T3 sequence (P05177 1-516): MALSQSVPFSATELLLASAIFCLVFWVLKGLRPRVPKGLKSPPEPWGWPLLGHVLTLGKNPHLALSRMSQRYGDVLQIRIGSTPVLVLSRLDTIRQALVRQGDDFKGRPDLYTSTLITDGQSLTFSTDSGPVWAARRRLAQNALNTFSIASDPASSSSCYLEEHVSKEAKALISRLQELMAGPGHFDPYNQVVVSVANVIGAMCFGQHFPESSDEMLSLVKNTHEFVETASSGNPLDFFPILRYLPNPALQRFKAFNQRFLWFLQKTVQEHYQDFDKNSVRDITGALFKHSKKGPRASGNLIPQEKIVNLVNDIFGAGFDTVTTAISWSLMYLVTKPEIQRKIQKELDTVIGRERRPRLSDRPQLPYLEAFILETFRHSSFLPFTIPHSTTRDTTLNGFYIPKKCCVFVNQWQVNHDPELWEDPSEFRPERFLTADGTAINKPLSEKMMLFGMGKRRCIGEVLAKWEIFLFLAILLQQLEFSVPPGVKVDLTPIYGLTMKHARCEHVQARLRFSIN
Method: as §1

CYP2C19 = CYP2C19 (Homo sapiens, UniProt P33261)
Method: as §1

Sequence of CYP2C19 (P33261 whole entry): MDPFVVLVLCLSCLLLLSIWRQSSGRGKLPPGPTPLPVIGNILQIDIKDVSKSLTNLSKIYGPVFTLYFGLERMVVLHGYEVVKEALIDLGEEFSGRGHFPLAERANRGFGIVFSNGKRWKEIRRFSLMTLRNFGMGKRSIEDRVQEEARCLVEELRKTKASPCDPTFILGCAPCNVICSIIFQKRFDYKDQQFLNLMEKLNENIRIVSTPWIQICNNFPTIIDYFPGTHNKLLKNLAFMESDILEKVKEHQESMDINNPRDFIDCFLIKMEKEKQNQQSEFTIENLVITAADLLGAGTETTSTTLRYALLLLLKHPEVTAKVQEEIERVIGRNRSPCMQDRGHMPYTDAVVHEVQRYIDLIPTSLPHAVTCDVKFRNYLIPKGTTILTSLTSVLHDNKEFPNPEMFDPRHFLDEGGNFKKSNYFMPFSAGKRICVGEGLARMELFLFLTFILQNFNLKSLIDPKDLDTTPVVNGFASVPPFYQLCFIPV
Sequence of human CYP2E1 (P05181 whole entry): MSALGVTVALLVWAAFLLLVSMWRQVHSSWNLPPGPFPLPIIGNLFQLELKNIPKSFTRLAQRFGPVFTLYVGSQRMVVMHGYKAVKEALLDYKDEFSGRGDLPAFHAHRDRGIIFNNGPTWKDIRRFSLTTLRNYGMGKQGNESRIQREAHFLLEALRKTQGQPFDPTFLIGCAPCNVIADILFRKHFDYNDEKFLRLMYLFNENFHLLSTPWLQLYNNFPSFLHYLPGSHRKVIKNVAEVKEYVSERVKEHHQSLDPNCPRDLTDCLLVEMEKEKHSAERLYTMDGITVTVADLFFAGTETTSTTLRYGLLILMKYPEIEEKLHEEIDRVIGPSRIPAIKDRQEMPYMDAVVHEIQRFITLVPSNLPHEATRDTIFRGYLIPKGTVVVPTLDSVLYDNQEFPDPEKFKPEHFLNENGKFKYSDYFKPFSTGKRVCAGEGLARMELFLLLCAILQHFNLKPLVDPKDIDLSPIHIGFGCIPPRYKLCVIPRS
Sequence of CYP3A4 (P08684 whole entry): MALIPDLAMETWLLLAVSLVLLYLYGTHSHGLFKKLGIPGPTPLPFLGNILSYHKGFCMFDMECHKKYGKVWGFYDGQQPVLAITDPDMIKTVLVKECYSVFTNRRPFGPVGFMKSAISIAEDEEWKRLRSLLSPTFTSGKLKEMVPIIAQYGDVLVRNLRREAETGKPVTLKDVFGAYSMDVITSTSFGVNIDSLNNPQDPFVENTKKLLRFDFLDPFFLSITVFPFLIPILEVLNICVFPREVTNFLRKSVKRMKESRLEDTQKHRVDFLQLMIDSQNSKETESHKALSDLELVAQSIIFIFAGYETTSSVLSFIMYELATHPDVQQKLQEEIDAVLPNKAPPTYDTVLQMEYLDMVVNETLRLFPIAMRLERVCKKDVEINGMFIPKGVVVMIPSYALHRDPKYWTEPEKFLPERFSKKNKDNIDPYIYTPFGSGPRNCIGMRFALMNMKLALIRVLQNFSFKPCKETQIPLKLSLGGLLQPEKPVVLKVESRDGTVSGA
Sequence of CYP2C9 (P11712 whole entry): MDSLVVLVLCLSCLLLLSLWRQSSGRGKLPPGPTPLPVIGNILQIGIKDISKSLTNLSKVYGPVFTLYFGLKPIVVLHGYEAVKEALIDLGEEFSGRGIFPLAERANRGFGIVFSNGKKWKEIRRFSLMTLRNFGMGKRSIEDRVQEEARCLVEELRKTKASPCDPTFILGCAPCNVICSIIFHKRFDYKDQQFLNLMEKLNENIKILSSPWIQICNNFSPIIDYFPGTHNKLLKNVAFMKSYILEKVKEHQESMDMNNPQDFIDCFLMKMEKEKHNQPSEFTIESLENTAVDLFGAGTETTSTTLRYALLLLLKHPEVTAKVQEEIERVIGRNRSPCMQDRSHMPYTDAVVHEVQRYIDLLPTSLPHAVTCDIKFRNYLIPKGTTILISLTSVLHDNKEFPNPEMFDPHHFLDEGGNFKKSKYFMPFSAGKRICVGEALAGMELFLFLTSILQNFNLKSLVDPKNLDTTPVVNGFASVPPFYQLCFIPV
Sequence of CYP2D6 (P10635 whole entry): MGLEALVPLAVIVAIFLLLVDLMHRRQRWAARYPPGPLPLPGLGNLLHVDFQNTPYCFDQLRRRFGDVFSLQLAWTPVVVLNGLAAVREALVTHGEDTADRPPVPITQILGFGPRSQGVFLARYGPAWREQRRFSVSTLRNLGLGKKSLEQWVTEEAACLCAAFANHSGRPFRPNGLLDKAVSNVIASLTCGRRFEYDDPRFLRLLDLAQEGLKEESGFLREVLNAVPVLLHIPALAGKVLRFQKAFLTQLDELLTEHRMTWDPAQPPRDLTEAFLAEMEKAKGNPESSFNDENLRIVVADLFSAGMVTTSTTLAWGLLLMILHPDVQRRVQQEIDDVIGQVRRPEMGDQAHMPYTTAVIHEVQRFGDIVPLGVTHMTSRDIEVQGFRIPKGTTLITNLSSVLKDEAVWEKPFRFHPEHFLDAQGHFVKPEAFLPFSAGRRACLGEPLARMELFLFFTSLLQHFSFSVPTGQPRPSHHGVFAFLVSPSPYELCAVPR
Sequence of human CYP3A5 (P20815 whole entry): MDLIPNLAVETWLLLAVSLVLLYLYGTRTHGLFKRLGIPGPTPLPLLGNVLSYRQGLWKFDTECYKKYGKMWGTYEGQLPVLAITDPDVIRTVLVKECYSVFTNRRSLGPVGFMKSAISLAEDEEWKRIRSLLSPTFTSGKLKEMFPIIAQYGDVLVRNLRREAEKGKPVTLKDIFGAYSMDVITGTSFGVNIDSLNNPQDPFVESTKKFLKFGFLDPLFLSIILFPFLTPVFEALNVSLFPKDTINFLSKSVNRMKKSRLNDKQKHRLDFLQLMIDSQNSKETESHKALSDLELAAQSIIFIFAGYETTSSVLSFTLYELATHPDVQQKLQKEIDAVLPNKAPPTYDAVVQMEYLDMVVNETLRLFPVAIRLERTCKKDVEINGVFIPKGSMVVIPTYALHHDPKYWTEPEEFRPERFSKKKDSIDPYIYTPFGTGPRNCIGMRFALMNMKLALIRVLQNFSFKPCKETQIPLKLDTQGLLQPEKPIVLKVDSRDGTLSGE

Contribution % (CYP3A4; CYP3A4): 50.3%
contribution % (CYP3A4; CYP3A4): 50.3%
half-life at 1 µM (CYP3A4; human, recombinant CYP3A4, 1 µM, 50 pmol/ml of CYP protein, mean ± SD, n = 3): 23.5 ± 2.35 min
CLint (CYP3A4; recombinant CYP3A4, 1 µM, 50 pmol/ml of CYP protein, mean ± SD, n = 3): 0.593 ± 0.0562 μL/min/pmol CYP
CLint (CYP3A4; recombinant CYP3A4, 1 µM, 50 pmol/ml CYP protein): 0.593 µL/min/pmol
Contribution % (CYP2D6; CYP2D6): 11.0%
contribution % (CYP2D6; CYP2D6): 11.0%
CYP isoform participating in metabolism (CYP2D6; based on expressed human cytochrome P450s and liver microsomes with specific inhibitors): CYP2D6 is major CYP isoform
half-life at 1 µM (CYP2D6; human, recombinant CYP2D6, 1 µM, 50 pmol/ml of CYP protein, mean ± SD, n = 3): 9.94 ± 0.819 min
CLint (CYP2D6; recombinant CYP2D6, 1 µM, 50 pmol/ml of CYP protein, mean ± SD, n = 3): 1.40 ± 0.112 μL/min/pmol CYP
CLint (CYP2D6; recombinant CYP2D6, 1 µM, 50 pmol/ml CYP protein): 1.40 µL/min/pmol
Contribution % (CYP2C9; CYP2C9): 8.24%
contribution % (CYP2C9; CYP2C9): 8.24%
half-life at 1 µM (CYP2C9; human, recombinant CYP2C9, 1 µM, turnover observed for one or two replicates only, t1/2 reported as minimum): 127 min
CLint (CYP2C9; recombinant CYP2C9, 1 µM, turnover observed for one or two replicates only, Clint reported as maximum): 0.109 μL/min/pmol CYP
CLint (CYP2C9; recombinant CYP2C9, turnover observed in one of the three replicates): 0.109 µL/min/pmol
Contribution % (CYP2C8; CYP2C8): 12.8%
contribution % (CYP2C8; CYP2C8): 12.8%
half-life at 1 µM (CYP2C8; human, recombinant CYP2C8, 1 µM, 50 pmol/ml of CYP protein, mean ± SD, n = 3): 57.2 ± 14.4 min
CLint (CYP2C8; recombinant CYP2C8, 1 µM, 50 pmol/ml of CYP protein, mean ± SD, n = 3): 0.254 ± 0.0720 μL/min/pmol CYP
CLint (CYP2C8; recombinant CYP2C8, 1 µM, 50 pmol/ml CYP protein): 0.254 µL/min/pmol
Contribution % (human CYP2E1; CYP2E1): 0.00%
metabolism by recombinant CYP isoform (human CYP2E1; recombinant CYP2E1): not found to substantially metabolize
CLint (human CYP2E1; recombinant CYP2E1, 1 µM, turnover not significant and > 80% remaining at last time point reported as 0.00): 0.00 μL/min/pmol CYP
t1/2 (human CYP2E1; recombinant CYP2E1, 1 µM, turnover not significant and > 80% remaining at last time point reported as ∞): ∞
Contribution % (human CYP3A5): 0.0651%
contribution % (human CYP3A5): 0.0651%
Contribution % (human CYP2B6; CYP2B6): 0.00%
metabolism by recombinant CYP isoform (human CYP2B6; recombinant CYP2B6): not found to substantially metabolize
CLint (human CYP2B6; recombinant CYP2B6, 1 µM, turnover not significant and > 80% remaining at last time point reported as 0.00): 0.00 μL/min/pmol CYP
t1/2 (human CYP2B6; recombinant CYP2B6, 1 µM, turnover not significant and > 80% remaining at last time point reported as ∞): ∞
Contribution % (CYP1A2; CYP1A2): 9.61%
contribution % (CYP1A2; CYP1A2): 9.61%
half-life at 1 µM (CYP1A2; human, recombinant CYP1A2, 1 µM, 50 pmol/ml of CYP protein, mean ± SD, n = 3): 51.5 ± 5.99 min
CLint (CYP1A2; recombinant CYP1A2, 1 µM, 50 pmol/ml of CYP protein, mean ± SD, n = 3): 0.272 ± 0.0339 μL/min/pmol CYP
CLint (CYP1A2; recombinant CYP1A2, 1 µM, 50 pmol/ml CYP protein): 0.272 µL/min/pmol
Contribution % (CYP2C19; CYP2C19): 8.01%
contribution % (CYP2C19; CYP2C19): 8.01%
half-life at 1 µM (CYP2C19; human, recombinant CYP2C19, 1 µM, 50 pmol/ml of CYP protein, mean ± SD, n = 3): 25.9 ± 1.68 min
CLint (CYP2C19; recombinant CYP2C19, 1 µM, 50 pmol/ml of CYP protein, mean ± SD, n = 3): 0.537 ± 0.0361 μL/min/pmol CYP
CLint (CYP2C19; recombinant CYP2C19, 1 µM, 50 pmol/ml CYP protein): 0.537 µL/min/pmol
SMILES: CN1CCC[C@H](CN2c3ccccc3Sc3ccccc32)C1 [(S)-mepazine, (S)-10-((1-methylpiperidin-3-yl)methyl)-10H-phenothiazine]
